Experimental data published in paper PMC11765572 (International Journal of Molecular Sciences, 2025).

Tested on: SARS-CoV-2 (BetaCov/Belgium/GHB-03021/2020 B.1 lineage A)

| Structure (SMILES) | SI (Selection Index) = CC50/EC50 |
| --- | --- |
| CNC(=O)c1cc(Br)cc([N+](=O)[O-])c1N[C@@H]1CCCC[C@@H]1NC(=O)c1cncc(O)c1 [Compound A6, N-((1S,2R)-2-((4-bromo-2-(methylcarbamoyl)-6-nitrophenyl)amino)cyclohexyl)-5-hydroxynicotinamide] | >16.5 |
| CNC(=O)c1cc(Br)cc([N+](=O)[O-])c1N[C@@H]1CCCC[C@@H]1NC(=O)c1cccnc1 [Compound A5, N-((1S,2R)-2-((4-bromo-2-(methylcarbamoyl)-6-nitrophenyl)amino)cyclohexyl)nicotinamide] | >49.7 |
